Test results as given in patent US20260327234A1, “NOVEL COMPOUNDS AS CYP11A1 INHIBITORS AND METHODS OF USE THEREOF” (Shenzhen Ionova Life Science Co., Ltd., priority 2023, published 2026).

What was measured:
[1] = molecular target: T1, CYP11A1 (Homo sapiens, UniProt P05108); test: H295R Steroid Biosynthesis Inhibition Assay - inhibition of pregnenolone (P) production catalyzed by CYP11A1 in NCI-H295R cells; type: cell-based; details: 48 h, LC-MS/MS, read-out: Inh. of P IC50
T1 construct: measuring the cellular production of pregnenolone (P) catalyzed by CYP11A1; host or cells: NCI-H295R
T1 sequence (P05108 40-521): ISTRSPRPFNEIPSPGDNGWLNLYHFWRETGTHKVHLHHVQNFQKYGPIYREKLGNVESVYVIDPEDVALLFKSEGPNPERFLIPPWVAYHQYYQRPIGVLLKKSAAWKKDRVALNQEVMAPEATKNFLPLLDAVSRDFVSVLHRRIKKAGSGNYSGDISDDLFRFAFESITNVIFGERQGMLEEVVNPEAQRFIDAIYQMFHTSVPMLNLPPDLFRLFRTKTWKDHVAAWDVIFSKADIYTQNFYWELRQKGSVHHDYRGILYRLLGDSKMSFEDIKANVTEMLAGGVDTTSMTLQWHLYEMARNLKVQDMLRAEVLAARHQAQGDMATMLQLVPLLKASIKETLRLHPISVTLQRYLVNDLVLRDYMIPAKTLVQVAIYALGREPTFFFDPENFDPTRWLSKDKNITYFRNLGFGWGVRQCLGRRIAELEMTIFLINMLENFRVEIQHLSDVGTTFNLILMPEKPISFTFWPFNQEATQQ
Protocol: (§1) Steroid Biosynthesis Inhibition by test compounds in NCI-H295R cells (ATCC) was studied by measuring the cellular production of pregnenolone (P) catalyzed by CYP11A1 and the downstream steroid, testosterone (T). Cells were cultured in Dulbecco's modified eagle's medium F12 (DMEM/F12) with phenol red (Gibco, Cat. No. 11330032) supplemented with 2% UltroserG (Pall, Cat. No. 15950-017, USA), 1% ITS-Premix and 1% penicillin and streptomycin (Hyclone, Cat. No. SV30010, USA). Prior to the assay, cells were thawed and passed 4 times. The maximal passage number used for the assay was 10. For this assay, DMEM/F12 without phenol red supplemented with 10% charcoal-stripped fetal bovine serum (VivaCell, Cat. No. C3830-0500, USA) were used. In a 96-well plate, 60,000 cells/well were plated (90 μL/well) and incubated for 24 h. Test compounds, diluted in a serial dilution ranging from 1000 nM to 0.15 nM in the assay medium, were added to the plate. After 48 h of incubation, solution from each well were collected and transferred to individual 1.5 mL centrifuge tubes, and then 5 ng/mL deuterated testosterone (D3-testosterone) and 50 ng/mL deuterated pregnenolone (D4-pregnenolone) in 200 μL acetonitrile were added. After vigorously mixing for 5 min, the mixture was centrifuged at 12,700 rpm for 15 min. An aliquot of 250 μL supernatant was collected and dried under N2 stream. After addition of 150 μL Methanol:water (1:1, v/v) to the dried product, 50 μL sample of this solution was injected into the LC-MS/MS system for analysis.
(§2) The half-maximal inhibitory concentration (IC50) for steroid biosynthesis inhibition was determined by curve-fitting with the 4-variable inhibitory dose response equation using GraphPad Prism software.
(§3) Testosterone and pregnenolone were analyzed using Shimadzu LC30AD HPLC system (Shimadzu, Kyoto, Japan) coupled with AB SCIEX Qtrap 5500 triple quadrupole mass spectrometer (AB Sciex, Framingham, MA, USA) via ESI interface in the positive ionization mode. An ACQUITY UPLC BEH Shield RP18 column (1.7 μm, 2.1×50 mm, Milford, MA, USA) maintained at 40° C. was used to separate analytes and IS form the sample matrix.
(§4) The mobile phase was a mixture of 10 mM ammonium acetate in water containing 0.2% formic acid (A) and methanol containing 0.2% formic acid (B) at a flow rate of 0.6 mL/min. The gradient program was set as follows: from 0 min to 0.5 min, 60% B; from 0.5 min to 3.5 min, 90% B; from 3.5 min to 4.5 min, 90% B; from 4.51 min to 5.0 min, 60% B. The injection volume was […].
(§5) The MS/MS parameters were set as follows: ion spray voltage, 5500 V; curtain gas, 35 psi; Gas 1, 55 psi; Gas 2: 55 psi; temperature, […]. The optimized multiple reaction monitoring (MRM) fragmentation transitions and MS parameters of each analyte are summarized in Table 1.

[2] = molecular target: T2, testosterone (T) production in NCI-H295R cells (Homo sapiens, UniProt P05108); test: H295R Steroid Biosynthesis Inhibition Assay - inhibition of testosterone (T) production in NCI-H295R cells; type: cell-based; details: 48 h, LC-MS/MS, read-out: Inh. of T IC50
T2 construct: testosterone measured by LC-MS/MS as downstream steroid
T2 sequence (P05108 40-521): T1 sequence (P05108 40-521)
Protocol: as §1, §2, §3, §4, §5

Row | Compound | IC50 [1] [nM] | IC50 [2] [nM]
1 | CS(=O)(=O)N[C@H]1CC[C@H](c2cc3oc(CN4Cc5ccccc5C4)cc(=O)c3o2)CC1 [Compound 44] | ≤ 40 | ≤ 40
2 | O=c1cc(CN2Cc3ccccc3C2)oc2cc(C3C4CC(O)CC43)oc12 (stereo not drawn) [Compound 39] | ≤ 40 | ≤ 40
3 | O=c1cc(CN2Cc3ccccc3C2)oc2cc(C3CCC(F)(F)CC3)oc12 [Compound 26] | 40 to 100 | ≥ 101
4 | CC(C)NC(=O)N1CCC(c2cnc3cc(CN4Cc5ccccc5C4)ccc3n2)CC1 [Compound 117] | 40 to 100 | ≥ 101
5 | CS(=O)(=O)N1CCC(c2cnc3cc(CN4Cc5ccccc5C4)cnc3c2)CC1 [Compound 80] | ≤ 40 | ≤ 40
6 | CNS(=O)(=O)c1ccc(-c2cc3oc(CN4Cc5ccccc5C4)cc(=O)c3o2)cc1 [Compound 51] | ≤ 40 | ≤ 40
7 | CNC(=O)N1CCC(c2cnc3cc(CN4Cc5ccccc5C4)ccc3n2)CC1 [Compound 115] | ≤ 40 | ≤ 40
8 | O=c1cc(CN2Cc3ccccc3C2)oc2cc([C@@H]3CC[C@@H](O)[C@@H](F)C3)oc12 [Compound 30] | ≤ 40 | ≤ 40
9 | O=S(=O)(c1ccccc1)N1CCC(c2cnc3cc(CN4Cc5ccccc5C4)ccc3n2)CC1 [Compound 98] | ≤ 40 | ≤ 40
10 | O=c1cc(CN2Cc3ccccc3C2)oc2cc([C@H]3CC[C@@]4(O)CC4C3)oc12 (stereo partly drawn) [Compound 40] | ≤ 40 | ≤ 40
11 | CN(C)C(=O)[C@H]1CC[C@H](c2cc3oc(CN4Cc5ccccc5C4)cc(=O)c3o2)CC1 [Compound 47] | ≤ 40 | ≤ 40
12 | O=S(=O)(N1CCC(c2cnc3cc(CN4Cc5ccccc5C4)ccc3n2)CC1)C(F)(F)F [Compound 97] | 40 to 100 | ≥ 101
13 | CS(=O)(=O)N1CCC(c2cnc3cc(CN4CCn5cccc5C4)ccc3n2)CC1 [Compound 125] | ≥ 100 | ≥ 101
14 | CS(=O)(=O)N1CCC(c2ccc3cc(CN4Cc5ccccc5C4)ccc3n2)CC1 [Compound 71] | ≤ 40 | ≤ 40
15 | CS(=O)(=O)N1CCC(COc2ccc(CN3CCc4ccccc4C3)c3cccnc23)CC1 [Compound 8] | ≤ 40 | ≤ 40
16 | CS(=O)(=O)N1CCC(c2cnc3cc(CN4Cc5ccc(OC(F)F)cc5C4)ccc3n2)CC1 [Compound 89] | ≤ 40 | ≤ 40
17 | O=c1cc(CN2Cc3ccccc3C2)oc2cc([C@H]3CC4CCC(C3)[C@H]4O)oc12 [Compound 33] | 40 to 100 | 41 to 100
18 | CC(C)(C)OC(=O)N1CCC(c2cnc3cc(CN4Cc5ccccc5C4)ccc3n2)CC1 [Compound 113] | 40 to 100 | 41 to 100

Row | Compound | IC50 [1] [nM] | IC50 [2] [nM]
19 | O=c1cc(CN2Cc3ccccc3C2)oc2cc(C3CC4(COC4)C3)oc12 [Compound 25] | ≤ 40 | ≤ 40
20 | CS(=O)(=O)N1C[C@@H]2[C@H](C1)[C@H]2c1cc2oc(CN3CCn4cccc4C3)cc(=O)c2o1 [Compound 53] | 40 to 100 | 41 to 100
21 | COC(=O)N1CCC(c2cc3oc(CN4Cc5ccccc5C4)cc(=O)c3o2)CC1 [Compound 15] | ≤ 40 | ≤ 40
22 | CS(=O)(=O)N1CCCC(c2cc3oc(CN4Cc5ccccc5C4)cc(=O)c3o2)C1 (stereo not drawn) [Compound 16] | 40 to 100 | ≥ 101
23 | CNS(=O)(=O)N1CCC(c2cnc3cc(CN4Cc5ccccc5C4)ccc3n2)CC1 [Compound 100] | ≤ 40 | ≤ 40
24 | C[C@]1(O)CC[C@H](c2cc3oc(CN4Cc5ccccc5C4)cc(=O)c3o2)CC1 [Compound 27] | ≤ 40 | ≤ 40
25 | CS(=O)(=O)N1CCC(c2ccc3cc(CN4CCn5cccc5C4)ccc3n2)CC1 [Compound 76] | 40 to 100 | ≥ 101
26 | CS(=O)(=O)N1CC=C(c2coc3cc(CN4Cc5ccccc5C4)ccc3c2=O)CC1 [Compound 65] | ≤ 40 | ≤ 40
27 | CS(=O)(=O)N1CCC(c2ccc3cc(CN4Cc5ccc(F)cc5C4)ccc3n2)CC1 [Compound 72] | ≤ 40 | ≤ 40
28 | CC(c1ncc(OCC2CCN(S(C)(=O)=O)CC2)c2ncccc12)N1Cc2ccccc2C1 (stereo not drawn) [Compound 12] | ≤ 40 | ≤ 40
29 | CS(=O)(=O)N1CCC(c2cnc3cc(CN4Cc5ccccc5C4)ccc3n2)CC1 [Compound 55, 6-(isoindolin-2-ylmethyl)-2-(1-(methylsulfonyl)piperidin-4-yl)quinoxaline] | ≤ 40 | ≤ 40
30 | CC(C)(O)[C@H]1CC[C@H](c2cc3oc(CN4Cc5ccccc5C4)cc(=O)c3o2)CC1 [Compound 32] | 40 to 100 | ≤ 40
31 | CS(=O)(=O)N1C[C@@H]2[C@H](C1)[C@H]2c1ccc2cc(CN3Cc4ccccc4C3)ccc2n1 [Compound 56, 6-(isoindolin-2-ylmethyl)-2-((1R,5S,6r)-3-(methylsulfonyl)-3-azabicyclo[3.1.0]hexan-6-yl)quinoline] | ≤ 40 | ≤ 40
32 | CS(=O)(=O)N1CC2(CC(c3cc4oc(CN5Cc6ccccc6C5)cc(=O)c4o3)C2)C1 [Compound 23] | ≤ 40 | ≤ 40
33 | Cn1c(C2CCN(S(C)(=O)=O)CC2)nc2ccc(CN3Cc4ccccc4C3)cc2c1=O [Compound 63] | ≤ 40 | ≤ 40
34 | CS(=O)(=O)N1CCC(c2ccc3nc(CN4Cc5ccccc5C4)cc(=O)n3c2)CC1 [Compound 59] | ≤ 40 | ≤ 40
35 | CCCS(=O)(=O)N1CCC(c2cnc3cc(CN4Cc5ccccc5C4)ccc3n2)CC1 [Compound 92] | ≤ 40 | ≤ 40
36 | COc1ccc2c(c1)CN(Cc1ccc3nc(C4CCN(S(C)(=O)=O)CC4)ccc3c1)C2 [Compound 73] | ≤ 40 | ≤ 40
